Source: patent publication US20230295152A1 (SENDA BIOSCIENCES, INC., priority 2019, published 2023)
Like-named read-outs stand apart in the source and are kept apart here.

Columns and labels:
[1] = Plasma Protein Binding with Ultracentrifugation Method, mouse; assay type: in vitro ADME; settings: for fraction unbound at 30 min, 1 μM: mouse plasma, read-out: Mouse plasma protein binding (% bound); for fraction unbound at 5.5 h, 1 μM: mouse, plasma, read-out: Plasma Protein Binding PPB (m) % (converted)
Protocol: The frozen plasma (stored at −80° C.) was thawed in a 37° C. water bath, followed by centrifugation at 3,220 g for 10 minutes to remove clots. The supernatant was removed into a new tube as the spun plasma. The spun plasma was pre-warmed in a 37° C. water bath for 10 minutes. The stock solutions of test compounds were diluted to 200 μM in DMSO, and then spiked into the plasma. Duplicate samples were prepared. The final concentration of compound was 1.0 μM. The final concentration of organic solvent was 0.5%. Warfarin was used as positive control in the assay. 1.0 mL of the spiked plasma was transferred to a new balance ultracentrifuge tube. Samples were incubated at 37° C., 5% CO2 for 30 minutes. After incubation, the balance ultracentrifuge tubes were centrifuged at 600,000 g for 5.5 hours at 37° C. After centrifugation, 50 μL solution was removed from the center of the ultracentrifuge tubes as the post-ultracentrifugation samples, followed by the addition of 50 μL blank plasma and 400 μL quench solution (acetonitrile containing internal standards (IS, 100 nM Alprazolam, 500 nM Labetalol and 2 μM Ketoprofen)) to precipitate protein and release compounds. Samples were vortexed for 2 minutes, followed by centrifugation at 20,000 g for 15 minutes at room temperature. The supernatant was diluted with ultrapure water and then used for LC-MS/MS analysis. Stability samples was prepared by transferring 50 μL of the spiked plasma to 0.6 mL tubes and incubated at 37° C., 5% CO2 for 0.5 and 6 hours. After incubation, 50 μL PBS (100 mM, pH7.4) and 400 μL quench solution were added to the stability samples. And then stability samples were treated the same way as the post-ultracentrifugation samples. The supernatant was diluted with ultrapure water and then used for LC-MS/MS analysis. 0.5 hour time point samples were also used as no-spun controls. Time 0 samples were prepared by transferring 50 μL spiked plasma to 0.6 mL tubes containing 50 μL PBS, followed by the addition of 400 μL quench solution to precipitate protein and release compound. And then these samples were treated the same way as the post-ultracentrifugation samples. The supernatant was diluted with ultrapure water and then used for LC-MS/MS analysis.
Data Analysis: All calculations were carried out using Microsoft Excel. The concentrations of test compound in plasma samples and post-ultracentrifugation plasma was determined from peak areas. The percentages of test compound bound was calculated as follows: […]
“+++” indicates a % bound value less than 50, “++” indicates a % bound value between 50 and 75, and “+” indicates a % bound value above 75.

[2] = In vivo PK study in male Sprague Dawley rats; settings: for clearance / half-life / Vd / bioavailability / C0 / AUC(0-inf) / AUC(0-t) / Cmax / Tmax: male, Sprague Dawley, plasma; for Rat CL (% Qh) / clearance / half-life / Vd / bioavailability / C0 / AUC(0-inf) / AUC(0-t) / Cmax / Tmax: rat; for clearance: read-out: Rat CL; for Vd: read-out: Rat Vss; for AUC(0-inf): read-out: AUCInf Mean; for AUC(0-t): read-out: AUCLast Mean
Protocol: The studies were conducted in male Sprague Dawley rats, three rats per group, or male CD1 mice, three mice per group. Compounds were dosed 1.0 mg/Kg i.v. (vehicle ethanol: % PEG400 in deionized water, in proportions suitable for dosing a clear solution) and 3.0 mg/kg or 10 mg/kg p.o. (vehicle: 1% methyl cellulose: 1,500 cP in DI water (w/v)). A11 animals had free access to food and water. Rat i.v. PK time points: Plasma: 0.083, 0.25, 0.5, 1, 2, 4, 8 and 24 h; Rat p.o. PK time points: Plasma: 0.25, 0.5, 1, 2, 4, 8 and 24 h. Mouse i.v. PK time points: Plasma: 0.083, 0.25, 0.5, 1, 2, 4, 8, 24, and 48 h; Mouse p.o. PK time points: Plasma: 0.25, 0.5, 1, 2, 4, 8, 24, and 48 h. Concentrations of compound in the plasma samples were analyzed using a LC-MS/MS method. WinNonlin (Phoenix™, version 6.1) or other similar software was used for pharmacokinetic calculations.

[3] = Hepatocyte Stability Assay, mouse; on all read-outs here: tested at 1 µM; assay type: in vitro ADME; settings: for Mouse hepatocyte clearance: mouse hepatocytes; for Suspension mou. heps Clint (% Qh): suspension mouse hepatocytes
Protocol: Example 7: Hepatocyte Stability Assay
• Preparation of working solutions: 10 mM stock solutions of test compound and positive control were prepared in DMSO. In separate conical tubes, the 10 mM solution of test compound and the positive control were diluted to 100 μM by combining 198 μL of 50% acetonitrile/50% water and 2 μL of 10 mM stock.
Data Analysis: All calculations were carried out using Microsoft Excel. Peak areas were determined from extracted ion chromatograms. In vitro half-life (t1/2) of parent compound was determined by regression analysis of the percent parent disappearance vs. time curve.
The in vitro half-life (in vitro t1/2) was determined from the slope value:
Conversion of the in vitro t1/2 (in min) into the in vitro intrinsic clearance (in vitro CLint, in μL/min/1×10^6 cells) was done using the following equation (mean of duplicate determinations):
V=incubation volume(0.2 mL);
N=number of hepatocytes per well(0.1×10^6 cells).

[4] = intravenous, 1 mg/kg, in vivo DMPK profile
[5] = intravenous, 1 mg/kg, in vivo DMPK profile, read-out: Rat T1/2 (converted)
[6] = oral, 3 mg/kg, in vivo DMPK profile, read-out: Rat % F
[7] = rats, 1 mg/kg IV, read-out: T1/2 Mean (converted)
[8] = rats, PO, dosage of 3 mg/kg, read-out: Bioavailability
[9] = rats, PO, dosage of 3 mg/kg, read-out: T1/2 Mean (converted)

C[C@@H](CO)n1cnc2c(-c3cccnc3)nc(-c3ccc(C(F)(F)F)cn3)cc2c1=O [Compound 46, (S)-3-(1-hydroxypropan-2-yl)-8-(pyridin-3-yl)-6-(5-(trifluoromethyl)pyridin-2-yl)pyrido[3,4-d]pyrimidin-4(3H)-one]
fraction unbound at 30 min, 1 μM [1]: < 0.25 | fraction unbound at 5.5 h, 1 μM [1]: 0.075 | Rat CL (% Qh) ([2]; in vivo DMPK profile): 9 % Qh | clearance [2, 4]: 6.7 mL/min/kg | half-life [2, 5]: 5.6 h | Vd [2, 4]: 3.1 L/kg | bioavailability [2, 6]: 89% | C0 ([2]; rats, 1 mg/kg IV): 301 ng/mL | AUC(0-inf) ([2]; rats, 1 mg/kg IV): 2490 ng·h/mL | AUC(0-t) ([2]; rats, 1 mg/kg IV): 2350 ng·h/mL | half-life [2, 7]: 5.65 h | Cmax ([2]; rats, PO, dosage of 3 mg/kg): 462 ng/mL | Tmax ([2]; rats, PO, dosage of 3 mg/kg): 3.33 h | AUC(0-t) ([2]; rats, PO, dosage of 3 mg/kg): 6280 ng·h/mL | bioavailability [2, 8]: 89% | half-life [2, 9]: 5.73 h | CI Mean ([2]; rats, 1 mg/kg IV): 112 mL/min/kg | Mouse hepatocyte clearance [3]: ++ (“++” indicates a CLint between 20 and 50 mL/min/Kg) | Suspension mou. heps Clint (% Qh) [3]: < 33 % Qh

Cn1cc(-c2nc(-c3ccc(C(F)(F)F)nc3)cc3c(=O)n(CC(C)(C)O)cnc23)cn1 [Compound 60]
fraction unbound at 30 min, 1 μM [1]: < 0.25 | C0 ([2]; rats, 1 mg/kg IV): 425 ng/mL | AUC(0-inf) ([2]; rats, 1 mg/kg IV): 3050 ng·h/mL | AUC(0-t) ([2]; rats, 1 mg/kg IV): 2910 ng·h/mL | half-life [2, 7]: 5.61 h | Cmax ([2]; rats, PO, dosage of 3 mg/kg): 152 ng/mL | Tmax ([2]; rats, PO, dosage of 3 mg/kg): 5.33 h | AUC(0-t) ([2]; rats, PO, dosage of 3 mg/kg): 2430 ng·h/mL | bioavailability [2, 8]: 27.9% | CI Mean ([2]; rats, 1 mg/kg IV): 91.3 mL/min/kg | Mouse hepatocyte clearance [3]: ++ (“++” indicates a CLint between 20 and 50 mL/min/Kg)

C[C@@H](CO)n1cnc2c(-c3cccnc3)nc(-c3ccc(C4CC4)nc3)cc2c1=O [Compound 74]
Mouse hepatocyte clearance [3]: + (“+” indicates an CLint above 50 mL/min/Kg)

CC(C)(O)Cn1cnc2c(-c3cccnc3)nc(-c3ccc(C(F)(F)F)nc3)cc2c1=O [Compound 9]
fraction unbound at 30 min, 1 μM [1]: < 0.25 | fraction unbound at 5.5 h, 1 μM [1]: 0.104 | Rat CL (% Qh) ([2]; in vivo DMPK profile): 5.8 % Qh | clearance [2, 4]: 4.1 mL/min/kg | half-life [2, 5]: 5.4 h | Vd [2, 4]: 1.75 L/kg | bioavailability [2, 6]: 77% | Suspension mou. heps Clint (% Qh) [3]: < 33 % Qh

CC(C)(O)Cn1cnc2c(-c3cccnc3)nc(-c3ccc(Cl)cc3)cc2c1=O [Compound 18]
fraction unbound at 30 min, 1 μM [1]: < 0.25 | Mouse hepatocyte clearance [3]: + (“+” indicates an CLint above 50 mL/min/Kg)

Cn1cc(-c2nc(-c3ccc(C(F)(F)F)cn3)cc3c(=O)n(CC(C)(C)O)cnc23)cn1 [Compound 103, 3-(2-hydroxy-2-methylpropyl)-8-(1-methyl-1H-pyrazol-4-yl)-6-(5-(trifluoromethyl)pyridin-2-yl)pyrido[3,4-d]pyrimidin-4(3H)-one]
fraction unbound at 30 min, 1 μM [1]: < 0.25 | C0 ([2]; rats, 1 mg/kg IV): 199 ng/mL | AUC(0-inf) ([2]; rats, 1 mg/kg IV): 12300 ng·h/mL | AUC(0-t) ([2]; rats, 1 mg/kg IV): 2790 ng·h/mL | half-life [2, 7]: 63 h | Cmax ([2]; rats, PO, dosage of 3 mg/kg): 40.2 ng/mL | Tmax ([2]; rats, PO, dosage of 3 mg/kg): 8 h | AUC(0-t) ([2]; rats, PO, dosage of 3 mg/kg): 794 ng·h/mL | bioavailability [2, 8]: 9.49% | CI Mean ([2]; rats, 1 mg/kg IV): 26 mL/min/kg

C[C@@H](CO)n1cnc2c(-c3cnsc3)nc(-c3ccc(Cl)cc3)cc2c1=O [Compound 58]
Mouse hepatocyte clearance [3]: ++ (“++” indicates a CLint between 20 and 50 mL/min/Kg)

C[C@H](n1cnc2c(-c3cnn(C)c3)nc(-c3ccc(Cl)cc3)cc2c1=O)C(C)(C)O [Compound 30]
fraction unbound at 30 min, 1 μM [1]: < 0.25 | C0 ([2]; rats, 1 mg/kg IV): 311 ng/mL | AUC(0-inf) ([2]; rats, 1 mg/kg IV): 2030 ng·h/mL | AUC(0-t) ([2]; rats, 1 mg/kg IV): 2010 ng·h/mL | half-life [2, 7]: 3.62 h | Cmax ([2]; rats, PO, dosage of 3 mg/kg): 276 ng/mL | Tmax ([2]; rats, PO, dosage of 3 mg/kg): 3.33 h | AUC(0-t) ([2]; rats, PO, dosage of 3 mg/kg): 3250 ng·h/mL | bioavailability [2, 8]: 53.9% | CI Mean ([2]; rats, 1 mg/kg IV): 143 mL/min/kg | Mouse hepatocyte clearance [3]: ++ (“++” indicates a CLint between 20 and 50 mL/min/Kg)

C[C@@H](CO)n1cnc2c(-c3cnn(C)c3)nc(-c3ccc(C(F)(F)F)nc3)cc2c1=O [Compound 68]
fraction unbound at 30 min, 1 μM [1]: < 0.25

O=c1c2cc(-c3ccc(C(F)(F)F)nc3)nc(-c3cccnc3)c2ncn1[C@@H]1COC[C@H]1O [Compound 79]
fraction unbound at 30 min, 1 μM [1]: < 0.25 | C0 ([2]; rats, 1 mg/kg IV): 663 ng/mL | AUC(0-inf) ([2]; rats, 1 mg/kg IV): 1220 ng·h/mL | AUC(0-t) ([2]; rats, 1 mg/kg IV): 1200 ng·h/mL | half-life [2, 7]: 1.38 h | Cmax ([2]; rats, PO, dosage of 3 mg/kg): 508 ng/mL | Tmax ([2]; rats, PO, dosage of 3 mg/kg): 1 h | AUC(0-inf) ([2]; rats, PO, dosage of 3 mg/kg): 2420 ng·h/mL | AUC(0-t) ([2]; rats, PO, dosage of 3 mg/kg): 2270 ng·h/mL | bioavailability [2, 8]: 65.9% | half-life [2, 9]: 2.53 h | CI Mean ([2]; rats, 1 mg/kg IV): 228 mL/min/kg

C[C@@H](CO)n1cnc2c(-c3cccnc3)nc(-c3ccc(C(F)(F)F)nc3)cc2c1=O [Compound 12]
fraction unbound at 30 min, 1 μM [1]: < 0.25 | Mouse hepatocyte clearance [3]: ++ (“++” indicates a CLint between 20 and 50 mL/min/Kg)

O=c1c2cc(-c3ccc(Cl)cc3)nc(-c3cccnc3)c2ncn1C[C@@H](O)C(F)(F)F (single isomer, unassigned) [185 enantiomer 1]
Mouse hepatocyte clearance [3]: + (“+” indicates an CLint above 50 mL/min/Kg)

Cn1cc(-c2nc(-c3ccc(Cl)cc3)cc3c(=O)n(CC(C)(C)O)cnc23)cn1 [Compound 21]
fraction unbound at 30 min, 1 μM [1]: < 0.25 | Mouse hepatocyte clearance [3]: ++ (“++” indicates a CLint between 20 and 50 mL/min/Kg)

CC(C)(O)Cn1cnc2c(-c3cccnc3)nc(-c3ccc(C(F)(F)F)cc3)cc2c1=O [Compound 16]
fraction unbound at 30 min, 1 μM [1]: < 0.25 | Mouse hepatocyte clearance [3]: ++ (“++” indicates a CLint between 20 and 50 mL/min/Kg)

O=c1c2cc(-c3ccc(Cl)cc3)nc(-c3cccnc3)c2ncn1[C@H]1COC[C@@H]1O [Compound 125, 6-(4-chlorophenyl)-3-((3S,4R)-4-hydroxytetrahydrofuran-3-yl)-8-(pyridin-3-yl)pyrido[3,4-d]pyrimidin-4(3H)-one]
fraction unbound at 30 min, 1 μM [1]: < 0.25

O=c1c2cc(-c3ccc(Cl)cc3)nc(-c3cccnc3)c2ncn1C[C@H](O)C(F)(F)F (single isomer, unassigned) [185 enantiomer 2]
Mouse hepatocyte clearance [3]: + (“+” indicates an CLint above 50 mL/min/Kg)

C[C@@H](CO)n1cnc2c(-c3cccnc3)nc(-c3ccc(OC(F)(F)F)cc3)cc2c1=O [Compound 22]
fraction unbound at 30 min, 1 μM [1]: < 0.25 | Mouse hepatocyte clearance [3]: ++ (“++” indicates a CLint between 20 and 50 mL/min/Kg)

Cc1ccc(-c2cc3c(=O)n([C@@H](C)CO)cnc3c(-c3cccnc3)n2)cc1 [Compound 17, (S)-3-(1-hydroxypropan-2-yl)-8-(pyridin-3-yl)-6-(p-tolyl)pyrido[3,4-d]pyrimidin-4(3H)-one]
fraction unbound at 30 min, 1 μM [1]: < 0.25 | Mouse hepatocyte clearance [3]: + (“+” indicates an CLint above 50 mL/min/Kg)
